# Experimental data as given in patent US20230265151A1, “GIP/GLP1 CO-AGONIST COMPOUNDS” (priority 2020, published 2023).
# Read-outs that look alike come from different tables or passages of the source. *1 amine or outer side, *2 acyl side, *3 side chain or, on linkers, in order; H or OH if unused. Where a SMILES comes first, the peptide text is derived from it. Side-chain parts run from the residue outwards. [ ]: non-standard residue; d: D form. The star is where a group is joined. αMePhe(2-F) = C[C@](N)(Cc1ccccc1F)C(=O)O; γGlu = O=C(O)[C@H](CCC(=O)[*:2])N[*:1]; C14 diacid = O=C(O)CCCCCCCCCCCCC(=O)*; αMeY = C[C@](N)(Cc1ccc(O)cc1)C(=O)O; αMeL = CC(C)C[C@](C)(N)C(=O)O; Orn = NCCC[C@H](N)C(=O)O; AEEA = NCCOCCOCC(=O)O; Aib = CC(C)(N)C(=O)O
# What was measured:
# Type in all cases: cell-based
# hGIPR = target: T1, hGIPR (Homo sapiens, UniProt P48546); experiment: Functional cAMP formation (HTRF) in HEK-293 clonal cells expressing hGIPR, 0.1% bovine casein, without or with 1.0% human serum albumin; details: for EC50: geometric mean, read-out: hGIPR EC50, nM (SEM, n)
# T1 construct: expressed in transfected cells
# T1 sequence (P48546 22-466): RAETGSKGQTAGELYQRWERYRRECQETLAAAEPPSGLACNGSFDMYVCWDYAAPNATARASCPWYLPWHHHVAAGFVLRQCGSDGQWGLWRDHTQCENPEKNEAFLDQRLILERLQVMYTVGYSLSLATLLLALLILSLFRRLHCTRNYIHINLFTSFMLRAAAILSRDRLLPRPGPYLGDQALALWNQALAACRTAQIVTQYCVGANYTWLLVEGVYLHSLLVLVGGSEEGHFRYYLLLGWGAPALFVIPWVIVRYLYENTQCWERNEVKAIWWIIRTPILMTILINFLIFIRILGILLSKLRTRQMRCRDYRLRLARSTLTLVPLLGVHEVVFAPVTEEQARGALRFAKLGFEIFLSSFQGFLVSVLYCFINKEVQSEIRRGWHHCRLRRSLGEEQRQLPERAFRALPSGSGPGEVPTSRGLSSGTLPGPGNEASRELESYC
# Procedure, shortened: (§1)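 Cells were stimulated with peptide for 30 min at 37° C, then lysed in buffer carrying cAMP-d2 and anti-cAMP Eu3+-cryptate for a competitive HTRF read after at least 60 min at room temperature. The 665/620 nm ratio was converted to nM cAMP against a standard curve.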
# hGCGR = target: T2, hGCGR (Homo sapiens, UniProt P47871); experiment: Functional cAMP formation (HTRF) in HEK-293 clonal cells expressing hGCGR, 0.1% bovine casein, without or with 1.0% human serum albumin; details: geometric mean
# T2 construct: expressed in transfected cells
# T2 sequence (P47871 26-477): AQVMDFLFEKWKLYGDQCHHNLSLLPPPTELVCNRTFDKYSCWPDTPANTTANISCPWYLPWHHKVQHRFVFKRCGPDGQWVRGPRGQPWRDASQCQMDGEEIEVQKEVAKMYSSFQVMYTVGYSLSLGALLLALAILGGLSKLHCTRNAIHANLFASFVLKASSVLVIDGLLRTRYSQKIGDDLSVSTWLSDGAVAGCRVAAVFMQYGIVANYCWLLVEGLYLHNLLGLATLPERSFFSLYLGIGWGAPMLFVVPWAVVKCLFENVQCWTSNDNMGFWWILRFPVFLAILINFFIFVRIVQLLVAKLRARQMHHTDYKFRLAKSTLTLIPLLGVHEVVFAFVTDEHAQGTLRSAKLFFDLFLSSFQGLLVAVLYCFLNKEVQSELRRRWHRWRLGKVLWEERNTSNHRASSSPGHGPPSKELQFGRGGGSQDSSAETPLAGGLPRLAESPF
# Procedure, shortened: as §1
# hGLP-1R = hGLP-1R (Homo sapiens, UniProt P43220); experiment: Functional cAMP formation (HTRF) in HEK-293 clonal cells expressing hGLP-1R, 0.1% bovine casein, without or with 1.0% human serum albumin; design: expressed in transfected cells; details: for Emax: HEK293, read-out: hGLP-1R Emax, % ± SEM, percent of maximal response to GLP-1(7-36)NH2, 0.1% bovine casein, arithmetic mean; for EC50: geometric mean
# hGLP-1R, sequence (P43220 24-463): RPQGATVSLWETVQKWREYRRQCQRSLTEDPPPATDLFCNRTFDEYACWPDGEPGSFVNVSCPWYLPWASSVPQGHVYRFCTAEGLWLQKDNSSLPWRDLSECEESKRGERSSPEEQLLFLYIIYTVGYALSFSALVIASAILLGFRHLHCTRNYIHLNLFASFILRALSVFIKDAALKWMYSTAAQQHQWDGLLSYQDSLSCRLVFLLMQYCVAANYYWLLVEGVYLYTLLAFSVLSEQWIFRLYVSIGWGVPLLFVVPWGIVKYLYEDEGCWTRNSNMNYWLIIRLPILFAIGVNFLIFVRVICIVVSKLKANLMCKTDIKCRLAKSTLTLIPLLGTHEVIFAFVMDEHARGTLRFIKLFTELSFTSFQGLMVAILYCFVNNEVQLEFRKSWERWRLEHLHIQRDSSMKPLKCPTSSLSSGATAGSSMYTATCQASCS
# Procedure, shortened: as §1
# [1] = HEK293, read-out: hGIPR Emax, % ± SEM, percent of maximal response to GIP(1-42)NH2, 37° C., 0.1% bovine casein, arithmetic mean
# [2] = hGCGR EC50, nM (SEM, n), cAMP, incubated at 37° C., 0.1% bovine casein (no human serum albumin)
# [3] = hGLP-1R EC50, nM (SEM, n), cAMP, incubated at 37° C., 0.1% bovine casein (no human serum albumin)
# [4] = HEK293, 0.1% bovine casein and 1.0% human serum albumin, 37° C., percent of maximal response to GIP(1-42)NH2, read-out: hGIPR Emax, % ± SEM
# [5] = HEK293, percent of maximal response to GIP(1-42)NH2, 37° C., 0.1% bovine casein, arithmetic mean, read-out: hGIPR Emax, % ± SEM
# [6] = 0.1% bovine casein and 1.0% human serum albumin, 37° C., read-out: hGCGR EC50, nM (SEM, n)
# [7] = cAMP, incubated at 37° C., 0.1% bovine casein (no human serum albumin), read-out: hGCGR EC50, nM (SEM, n)
# [8] = 0.1% bovine casein and 1.0% human serum albumin, 37° C., read-out: hGLP-1R EC50, nM (SEM, n)
# [9] = 0.1% bovine casein and 1.0% human serum albumin, 37° C.
# [10] = cAMP, incubated at 37° C., 0.1% bovine casein (no human serum albumin)
# [11] = cAMP, incubated at 37° C., 0.1% bovine casein (no human serum albumin), read-out: hGLP-1R EC50, nM (SEM, n)
smiles,measurement,setting,value
CC[C@H](C)[C@H](NC(=O)[C@H](CC(C)C)NC(=O)[C@](C)(Cc1ccc(O)cc1)NC(=O)[C@H](CCCCNC(=O)COCCOCCNC(=O)COCCOCCNC(=O)CC[C@H](NC(=O)CCCCCCCCCCCCC(=O)O)C(=O)O)NC(=O)[C@@H](NC(=O)[C@H](Cc1ccccc1)NC(=O)[C@H](CCC(=O)O)NC(=O)C(C)(C)NC(=O)[C@H](CCC(N)=O)NC(=O)[C@H](C)NC(=O)[C@H](CCCCNC(=O)COCCOCCNC(=O)COCCOCCNC(=O)CC[C@H](NC(=O)CCCCCCCCCCCCC(=O)O)C(=O)O)NC(=O)[C@H](CCCN)NC(=O)[C@H](CC(=O)O)NC(=O)[C@H](CC(C)C)NC(=O)[C@](C)(CC(C)C)NC(=O)[C@@H](NC(=O)C(C)(C)NC(=O)[C@@H](NC(=O)[C@H](CC(=O)O)NC(=O)[C@H](CO)NC(=O)[C@@H](NC(=O)[C@](C)(Cc1ccccc1)NC(=O)[C@@H](NC(=O)CNC(=O)[C@H](CCC(=O)O)NC(=O)C(C)(C)NC(=O)[C@@H](N)Cc1ccc(O)cc1)[C@@H](C)O)[C@@H](C)O)C(C)C)[C@@H](C)CC)[C@@H](C)CC)C(=O)N[C@@H](CCC(=O)O)C(=O)NCC(=O)NCC(=O)N1CCC[C@H]1C(=O)N[C@@H](CO)C(=O)N[C@@H](CO)C(=O)NCC(=O)N[C@@H](C)C(=O)N1CCC[C@H]1C(=O)N1CCC[C@H]1C(=O)N1CCC[C@H]1C(=O)N[C@@H](CO)C(N)=O [Example 182],Emax,hGIPR; [1],89%
same,EC50,hGCGR; [2],> 9950 nM
same,Emax,hGLP-1R; 37° C.,96.9%
same,EC50,hGLP-1R; [3],0.185 nM
CC[C@H](C)[C@H](NC(=O)[C@H](CC(C)C)NC(=O)[C@](C)(Cc1ccc(O)cc1)NC(=O)[C@@H](CCC(=O)O)NC(=O)[C@@H](NC(=O)[C@H](Cc1ccccc1)NC(=O)[C@H](CCC(=O)O)NC(=O)C(C)(C)NC(=O)[C@H](CCC(N)=O)NC(=O)[C@H](C)NC(=O)[C@H](CCCCNC(=O)COCCOCCNC(=O)COCCOCCNC(=O)CC[C@H](NC(=O)CCCCCCCCCCCCC(=O)O)C(=O)O)NC(=O)[C@H](CCCN)NC(=O)[C@H](CC(=O)O)NC(=O)[C@H](CC(C)C)NC(=O)[C@](C)(CC(C)C)NC(=O)[C@@H](NC(=O)[C@H](CO)NC(=O)C1(NC(=O)[C@H](CC(=O)O)NC(=O)[C@H](CO)NC(=O)[C@@H](NC(=O)[C@](C)(Cc2ccccc2F)NC(=O)[C@@H](NC(=O)CNC(=O)[C@H](CCC(=O)O)NC(=O)C(C)(C)NC(=O)[C@@H](N)Cc2ccc(O)cc2)[C@@H](C)O)[C@@H](C)O)CCCCC1)[C@@H](C)CC)[C@@H](C)CC)C(=O)N[C@@H](CCC(=O)O)C(=O)NCC(=O)NCC(=O)N[C@@H](CCCCNC(=O)COCCOCCNC(=O)COCCOCCNC(=O)CC[C@H](NC(=O)CCCCCCCCCCCCC(=O)O)C(=O)O)C(=O)N[C@@H](CO)C(=O)N[C@@H](CO)C(=O)NCC(=O)N[C@@H](C)C(=O)N1CCC[C@H]1C(=O)N1CCC[C@H]1C(=O)N1CCC[C@H]1C(=O)N[C@@H](CO)C(N)=O [Example 54],Emax,hGIPR; [4],85.6%
same,Emax,hGIPR; [5],113%
same,EC50,hGCGR; [6],> 9950 nM
same,EC50,hGCGR; [7],> 9950 nM
same,EC50,hGLP-1R; [8],20.3 nM
CC[C@H](C)[C@H](NC(=O)[C@H](CC(C)C)NC(=O)[C@](C)(Cc1ccccc1)NC(=O)[C@H](CCCCNC(=O)COCCOCCNC(=O)COCCOCCNC(=O)CC[C@H](NC(=O)CCCCCCCCCCCCC(=O)O)C(=O)O)NC(=O)[C@@H](NC(=O)[C@](C)(Cc1ccccc1)NC(=O)[C@H](CCC(=O)O)NC(=O)C(C)(C)NC(=O)[C@H](CCC(N)=O)NC(=O)[C@H](C)NC(=O)[C@H](CCCCNC(=O)COCCOCCNC(=O)COCCOCCNC(=O)CC[C@H](NC(=O)CCCCCCCCCCCCC(=O)O)C(=O)O)NC(=O)[C@H](CCCN)NC(=O)[C@H](CC(=O)O)NC(=O)[C@H](CC(C)C)NC(=O)[C@](C)(CC(C)C)NC(=O)[C@@H](NC(=O)C(C)(C)NC(=O)[C@@H](NC(=O)[C@H](CC(=O)O)NC(=O)[C@H](CO)NC(=O)[C@@H](NC(=O)[C@](C)(Cc1ccccc1F)NC(=O)[C@@H](NC(=O)CNC(=O)[C@H](CCC(=O)O)NC(=O)C(C)(C)NC(=O)[C@@H](N)Cc1ccc(O)cc1)[C@@H](C)O)[C@@H](C)O)C(C)C)[C@@H](C)CC)[C@@H](C)CC)C(=O)N[C@@H](CCC(=O)O)C(=O)NCC(=O)NCC(=O)N1CCC[C@H]1C(=O)N[C@@H](CO)C(=O)N[C@@H](CO)C(=O)NCC(=O)N[C@@H](C)C(=O)N1CCC[C@H]1C(=O)N1CCC[C@H]1C(=O)N1CCC[C@H]1C(=O)N[C@@H](CO)C(N)=O [Example 123],Emax,hGIPR; [1],94.9%
same,EC50,hGCGR; [2],> 9950 nM
same,Emax,hGLP-1R; 37° C.,96.3%
same,EC50,hGLP-1R; [3],0.508 nM
CC[C@H](C)[C@H](NC(=O)[C@H](CC(C)C)NC(=O)[C@](C)(Cc1ccc(O)cc1)NC(=O)[C@@H](CCC(=O)O)NC(=O)[C@@H](NC(=O)[C@H](Cc1ccccc1)NC(=O)[C@H](CCC(=O)O)NC(=O)C(C)(C)NC(=O)[C@H](CCC(N)=O)NC(=O)[C@H](C)NC(=O)[C@H](CCCCNC(=O)COCCOCCNC(=O)COCCOCCNC(=O)CC[C@H](NC(=O)CCCCCCCCCCCCC(=O)O)C(=O)O)NC(=O)[C@H](CCCN)NC(=O)[C@H](CC(=O)O)NC(=O)[C@H](CC(C)C)NC(=O)[C@](C)(CC(C)C)NC(=O)[C@@H](NC(=O)[C@H](CO)NC(=O)[C@H](Cc1ccc(OC)cc1)NC(=O)[C@H](CC(=O)O)NC(=O)[C@H](CO)NC(=O)[C@@H](NC(=O)[C@](C)(Cc1ccccc1F)NC(=O)[C@@H](NC(=O)CNC(=O)[C@H](CCC(=O)O)NC(=O)C(C)(C)NC(=O)[C@@H](N)Cc1ccc(O)cc1)[C@@H](C)O)[C@@H](C)O)[C@@H](C)CC)[C@@H](C)CC)C(=O)N[C@@H](CCC(=O)O)C(=O)NCC(=O)NCC(=O)N[C@@H](CCCCNC(=O)COCCOCCNC(=O)COCCOCCNC(=O)CC[C@H](NC(=O)CCCCCCCCCCCCC(=O)O)C(=O)O)C(=O)N[C@@H](CO)C(=O)N[C@@H](CO)C(=O)NCC(=O)N[C@@H](C)C(=O)N1CCC[C@H]1C(=O)N1CCC[C@H]1C(=O)N1CCC[C@H]1C(=O)N[C@@H](CO)C(N)=O [Example 58] (H-Y[Aib]EGT[αMePhe(2-F)]TSDY(Me)SI[αMeL]LD[Orn]K([AEEA-AEEA-γGlu-C14 diacid])AQ[Aib]EFI[dE][αMeY]LIEGGK([AEEA-AEEA-γGlu-C14 diacid])SSGAPPPS-NH2),EC50,hGIPR; [9],1.12 nM
same,Emax,hGIPR; [4],92.2 ± 7.4%
same,Emax,hGIPR; [5],89.2 ± 5.96%
same,EC50,hGIPR; [10],0.0158 nM
same,EC50,hGCGR; [6],> 9950 nM
same,EC50,hGCGR; [7],> 9950 nM
same,EC50,hGLP-1R; [11],0.194 nM
CC[C@H](C)[C@H](NC(=O)[C@H](CC(C)C)NC(=O)[C@](C)(Cc1ccc(O)cc1)NC(=O)[C@@H](CCC(=O)O)NC(=O)[C@@H](NC(=O)[C@H](Cc1ccccc1)NC(=O)[C@H](CCCCNC(=O)COCCOCCNC(=O)CC[C@H](NC(=O)CCCCCCCCCCCCC(=O)O)C(=O)O)NC(=O)C(C)(C)NC(=O)[C@H](CCC(N)=O)NC(=O)[C@H](C)NC(=O)[C@H](CCCCNC(=O)COCCOCCNC(=O)CC[C@H](NC(=O)CCCCCCCCCCCCC(=O)O)C(=O)O)NC(=O)[C@H](CCCN)NC(=O)[C@H](CC(=O)O)NC(=O)[C@H](CC(C)C)NC(=O)[C@](C)(CC(C)C)NC(=O)[C@@H](NC(=O)[C@H](CO)NC(=O)[C@H](Cc1ccncc1)NC(=O)[C@H](CC(=O)O)NC(=O)[C@H](CO)NC(=O)[C@@H](NC(=O)[C@](C)(Cc1ccccc1F)NC(=O)[C@@H](NC(=O)CNC(=O)[C@H](CCC(=O)O)NC(=O)C(C)(C)NC(=O)[C@@H](N)Cc1ccc(O)cc1)[C@@H](C)O)[C@@H](C)O)[C@@H](C)CC)[C@@H](C)CC)C(=O)N[C@@H](CCC(=O)O)C(=O)NCC(=O)NCC(=O)N1CCC[C@H]1C(=O)N[C@@H](CO)C(=O)N[C@@H](CO)C(=O)NCC(=O)N[C@@H](C)C(=O)N1CCC[C@H]1C(=O)N1CCC[C@H]1C(=O)N1CCC[C@H]1C(=O)N[C@@H](CO)C(N)=O [Example 76],EC50,hGIPR; [9],1.4 nM
same,Emax,hGIPR; [4],89.9 ± 2.11%
same,EC50,hGIPR; [10],0.0205 nM
same,EC50,hGCGR; [6],> 9950 nM
same,EC50,hGCGR; [7],> 9950 nM
same,EC50,hGLP-1R; [8],28.9 nM
same,EC50,hGLP-1R; [11],0.527 nM
